US11981655B1, “3-(4,5-diphenyl-2-(pyridin-3-yl)-1H-imidazol-1-yl)-N,N-dimethylpropan-1-amine as an anticancer compound” (KING FAISAL UNIVERSITY, priority 2023, dated 2024)

Legend:
[1] = test system: human prostate cancer cells (PC3); assay: Cytotoxicity by SRB assay, PC3 cells; format: cell-based; details: 72 h, 0.01 μM to 100 μM
Description: (§1) The human prostate cancer cells (PC3) and human osteosarcoma cells (MG-63) were obtained from Nawah Scientific Inc. (Mokatam, Cairo, Egypt) and cultured in DMEM (Dulbecco's modified eagle's medium), Gibco, USA, supplemented with fetal bovine serum (FBS) at a concentration of 10% and 100 U/mL of penicillin and streptomycin (PS). The Cells were incubated at 37° C. in a humidified environment that contained 5% CO2.
(§2) Cells were seeded in 96-well plates as aliquots of 100 μL cell suspension and incubated in a complete media for 24 h. Afterward, cells were treated with 2-(1-(2-hydroxypropyl)-4,5-diphenyl-1H-imidazol-2-yl)pyridine at diverse concentrations ranging from 0.01 μM to 100 μM for 72 h. Then, cells were fixed at 4° C. for one hour with 150 μL of 10% trichloroacetic acid (TCA). After washing the cells five times with distilled water, 70 μL of sulforhodamine (SRB) solution (0.4% w/v) was added and incubated for 10 min at room temperature in a dark place. […] Then, 150 μL of Tris pH 10.5 (10 mM) was added, and the absorbance was measured at 540 nm using a BMG LABTECH®-FLUOstar Omega microplate reader (Ortenberg, Germany). Half maximal inhibitory concentrations (IC50) values were calculated for each experiment using GraphPad Prism 6 software. […]
(§3) The inhibition was calculated using the following equation: Inhibition %=100−Average Viability

[2] = test system: human osteosarcoma cells (MG-63); assay: Cytotoxicity by SRB assay, MG-63 cells; format: cell-based; details: 72 h, 0.01 μM to 100 μM
Description: as §1, §2, §3

## CN(C)CCCn1c(-c2cccnc2)nc(-c2ccccc2)c1-c1ccccc1 [3-(4,5-Diphenyl-2-(pyridin-3-yl)-1H-imidazol-1-yl)-N,N-dimethylpropan-1-amine]
[1]
  antiproliferative activity: excellent antiproliferative activities
[2]
  antiproliferative activity: excellent antiproliferative activities
other
  melting point: 145 to 147 °C
